Laboratory results published in patent US20260007717A1, “ANTIMICROBIAL PEPTIDE COMPOUNDS AND METHODS OF USE” (priority 2022, published 2026).
≈ marks a conversion by molar mass, not a printed value. Where two headings read alike, the source gives them in different places. Positions of bridges follow the written chain, without caps; N, C: chain ends. Non-standard residues stand in square brackets, D forms with d. Residues, ends and D or L forms follow the SMILES beside them. *: point of attachment. Picolinoyl = O=C(c1ccccn1)*; Aib = CC(C)(N)C(=O)O

How the values were obtained:
P. gingivalis = type: cell-based
Protocol: (§1) Briefly, P. gingivalis is grown under anaerobic conditions to mid-log phase as per Dominy et al. […] The microtiter plate method outlined by Jansen (ibid) was used to measure MICs. Compounds and bacteria are added to wells of a microtiter plate and grown anaerobically (P. gingivalis) or with CO2 (L. salivarius) for 24 to 72 hours. Growth is measured with light scattering at 592 nm on a plate reader and absorbance plotted against μg/ml of drug in each well.

L. salivarius = type: cell-based
Protocol: as §1

E. coli = type: cell-based
A. baumannii = settings: cited from earlier work
[1] = system: pan-drug resistant (PDR) Acinetobacter baumannii YQ4; settings: A. baumannii YQ4, LB broth
A. baumanii YQ4 = experiment: Induction of resistance through serial passage; settings: after 55 passages at sub-MIC
Protocol: The initial concentration of the tested compounds was set up as 1/32×MIC and doubled every 10 passages. The 1 ml of bacterial culture was stored in 10% sterile glycerol at −80° C. every 5 passages. The MIC value of collected cultures and original strains were measured through the micro-dilution method.

A. baumannii YQ4 [2] = settings: COG1410 combined with polymyxin B
Protocol: The checkerboard method was performed to determine the fractional inhibitory concentration (FIC) index between COG1410 and other antimicrobials. Two-fold serial dilutions of antimicrobials and COG1410 were conducted and mixed in the 96-well plate. […] The experiments were conducted twice independently.

PDR A. baumannii YQ4 = experiment: Dynamic time-kill assay in PBS; settings: 30 min
Protocol: For dynamic time-kill assay, the overnight culture of A. baumannii YQ4 was transferred to fresh broth with initial OD600 0.01 and grown to the logarithmic phase. 1 ml culture was harvested, washed twice with 1× phosphate-buffered saline (PBS, pH7.4), containing 8 mM NaH2PO4, 2 mM KH2PO4, 2.6 mM KCl, 136 mM NaCl), and finally suspended in 1 ml PBS with OD600 0.5, which approximately corresponds to 1×10^8 CFU/ml. […] 100 μl aliquot was respectively taken at 0, 5, 10 and 30 min, serially diluted in PBS and plated on LB agar. The CFUs were counted after incubation at 37° C. for 18 h. […] Three independent experiments were performed.

A. baumannii YQ4 [3] = experiment: ATP leakage assay; type: cell-based, Acinetobacter baumannii; settings: 1×MIC, 30 min
Protocol: ATP leakage assay was performed using the Enhanced ATP Assay Kit of Beyotime (S0027) according to the manufacturer's manual. Briefly, the log-phase culture of A. baumannii YQ4 was prepared, washed and suspended in PBS as above. This suspension was exposed to 16 μg/ml COG1410, 16 μg/ml polymyxin B and 32 μg/ml tigecycline, respectively and incubated at 37° C. for 30 min. The supernatant was harvested and used for measurement of ATP levels. 100 μl of supernatant was mixed with 100 μl working solution and the chemiluminescence was measured by Biotek Synergy H1 plate reader. Untreated sample was set as negative control. The experiments were performed in triplicate.

Row | Compound | MIC E. coli (E. coli) [µg/mL] | MIC P. gingivalis (P. gingivalis) [µg/mL] | MIC L. salivarius (L. salivarius) [µg/mL] | also measured
1 | CC(=O)N[C@H](CC(C)C)C(=O)N[C@H](CC(C)C)C(=O)N[C@H](CCCNC(=N)N)C(=O)N[C@H](CCCCN)C(=O)NC(C)(C)C(=O)N[C@H](CC(C)C)C(=O)N[C@H](CCCCN)C(=O)N[C@H](CCCNC(=N)N)C(=O)N[C@H](CC(C)C)C(=O)NC(C)(C)C(=O)N[C@H](CO)C(=O)N[C@H](C)C(=O)N[C@H](CC(C)C)C(=O)N[C@H](CCCNC(=N)N)C(=O)N[C@@H](C(=O)N[C@H](CCCNC(=N)N)C(=O)N[C@H](CC(C)C)C(N)=O)C(C)C [SEQ ID NO: 11, Acetyl-llrk-aib-lkrl-aib-salrvrl-amide] (Ac-[dL][dL][dR][dK][Aib][dL][dK][dR][dL][Aib][dS][dA][dL][dR][dV][dR][dL]-NH2) | 4 (≈ 1.95 µM) |  |  | MIC P. gingivalis (P. gingivalis; anaerobic BHI broth): 8 µg/mL (≈ 3.91 µM); MIC L. salivarius (L. salivarius; 5% CO2, BHI broth): 16 µg/mL (≈ 7.82 µM)
2 | CC(=O)N[C@@H](CC(C)C)C(=O)N[C@@H](CCCNC(=N)N)C(=O)N[C@H](C(=O)N[C@@H](CCCNC(=N)N)C(=O)N[C@@H](CC(C)C)C(=O)N[C@@H](C)C(=O)N[C@@H](CO)C(=O)NC(C)(C)C(=O)N[C@@H](CC(C)C)C(=O)N[C@@H](CCCCN)C(=O)N[C@@H](CCCCN)C(=O)N[C@@H](CC(C)C)C(=O)NC(C)(C)C(=O)N[C@@H](CCCCN)C(=O)N[C@@H](CCCNC(=N)N)C(=O)N[C@@H](CC(C)C)C(=O)N[C@@H](CC(C)C)C(N)=O)C(C)C [SEQ ID NO: 9, Acetyl-LRVRLAS-aib-LKKL-aib-KRLL-Amide] (Ac-LRVRLAS[Aib]LKKL[Aib]KRLL-NH2) | 4 (≈ 1.98 µM) | 8 (≈ 3.96 µM) | 4 (≈ 1.98 µM) | 
3 | CC(C)C[C@@H]1NC(=O)[C@H](CC(C)C)NC(=O)[C@H](CCCNC(=N)N)NC(=O)[C@H](CCCCN)NC(=O)C(C)(C)NC(=O)[C@H](CC(C)C)NC(=O)[C@H](CCCCN)NC(=O)[C@H](CCCNC(=N)N)NC(=O)[C@H](CC(C)C)NC(=O)[C@@H](NC(=O)[C@H](CO)NC(=O)[C@H](C)NC(=O)c2ccccn2)CSSC[C@@H](C(N)=O)NC1=O [SEQ ID NO: 3, Picolinyl-AS-C-LRKL-aib-KRLL-C-amide] (Picolinoyl-ASCLRKL[Aib]KRLLC-NH2; disulfide 3-13) |  |  |  | MIC P. gingivalis (P. gingivalis; anaerobic BHI broth): 2 µg/mL (≈ 1.26 µM)
4 | CC(C)C[C@H](NC(=O)[C@H](CC(C)C)NC(=O)[C@H](CCCNC(=N)N)NC(=O)[C@H](CCCCN)NC(=O)C(C)(C)NC(=O)[C@H](CC(C)C)NC(=O)[C@H](CCCCN)NC(=O)[C@H](CCCNC(=N)N)NC(=O)[C@H](CC(C)C)NC(=O)C(C)(C)NC(=O)[C@H](CO)NC(=O)[C@H](C)NC(=O)c1ccccn1)C(N)=O [SEQ ID NO: 2, Picolinyl-AS-aib-LRKL-aib-KRLL-amide] (Picolinoyl-AS[Aib]LRKL[Aib]KRLL-NH2) | 32 (≈ 21.7 µM) | 2 to 32 | 8 (≈ 5.44 µM) | 
5 | CC(=O)N[C@@H](CC(C)C)C(=O)N[C@@H](CCCNC(=N)N)C(=O)N[C@H](C(=O)N[C@@H](CCCNC(=N)N)C(=O)N[C@@H](CC(C)C)C(=O)N[C@@H](C)C(=O)N[C@@H](CO)C(=O)N[C@@H](Cc1c[nH]cn1)C(=O)N[C@@H](CC(C)C)C(=O)N[C@@H](CCCNC(=N)N)C(=O)N[C@@H](CCCCN)C(=O)N[C@@H](CC(C)C)C(=O)N[C@@H](CCCNC(=N)N)C(=O)N[C@@H](CCCCN)C(=O)N[C@@H](CCCNC(=N)N)C(=O)N[C@@H](CC(C)C)C(=O)N[C@@H](CC(C)C)C(=O)N[C@@H](C)C(=O)N[C@@H](CO)C(=O)NC(C)(C)C(=O)N[C@@H](CC(C)C)C(=O)N[C@@H](CCCNC(=N)N)C(=O)N[C@@H](CCCCN)C(=O)N[C@@H](CC(C)C)C(=O)NC(C)(C)C(=O)N[C@@H](CCCCN)C(=O)N[C@@H](CCCNC(=N)N)C(=O)N[C@@H](CC(C)C)C(=O)N[C@@H](CC(C)C)C(N)=O)C(C)C [SEQ ID NO: 12, Acetyl-LRVRLASHLRKLRKRLLAS-aib-LRKL-aib-KRLL-CONH2] (Ac-LRVRLASHLRKLRKRLLAS[Aib]LRKL[Aib]KRLL-NH2) | 4 (≈ 1.14 µM) | 16 (≈ 4.55 µM) | 64 (≈ 18.2 µM) | 
6 | SAAP-148 |  |  |  | LC99.9 (A. baumannii; 50% pooled plasma): 12.8 UM; LC99.9 (A. baumannii; PBS): 1.6 µM
7 | CC(=O)N[C@@H](CC(C)C)C(=O)N[C@@H](CCCNC(=N)N)C(=O)N[C@H](C(=O)N[C@@H](CCCNC(=N)N)C(=O)N[C@@H](CS)C(=O)N[C@@H](C)C(=O)N[C@@H](CO)C(=O)NC(C)(C)C(=O)N[C@@H](CC(C)C)C(=O)N[C@@H](CCCNC(=N)N)C(=O)N[C@@H](CCCCN)C(=O)N[C@@H](CC(C)C)C(=O)NC(C)(C)C(=O)N[C@@H](CCCCN)C(=O)N[C@@H](CCCNC(=N)N)C(=O)N[C@@H](CC(C)C)C(=O)N[C@@H](CC(C)C)C(N)=O)C(C)C [SEQ ID NO: 8, Acetyl-LRVRCAS-aib-LRKL-aib-KRLL-CONH2] (Ac-LRVRCAS[Aib]LRKL[Aib]KRLL-NH2) | 8 (≈ 3.93 µM) | 64 (≈ 31.4 µM) | 16 (≈ 7.86 µM) | 
8 | polymyxin B [reference compound] |  |  |  | MIC [1]: 16 µg/mL; increase of MIC (A. baumanii YQ4): 64 fold; working concentration in the combination (A. baumannii YQ4 [2]): 1 µg/mL; reduction in CFU (PDR A. baumannii YQ4; 1×MIC): 2 log; reduction in CFU (PDR A. baumannii YQ4; 5×MIC): 4 logs; ATP leakage (A. baumannii YQ4 [3]): released more ATP compared to untreated cells
9 | CC(=O)N[C@@H](CC(C)C)C(=O)N[C@@H](CC(C)C)C(=O)N[C@@H](CCCNC(=N)N)C(=O)N[C@@H](CCCCN)C(=O)NC(C)(C)C(=O)N[C@@H](CC(C)C)C(=O)N[C@@H](CCCCN)C(=O)N[C@@H](CCCNC(=N)N)C(=O)N[C@@H](CC(C)C)C(=O)NC(C)(C)C(=O)N[C@@H](CO)C(=O)N[C@@H](C)C(N)=O [SEQ ID NO: 4, Acetyl-LLRK-aib-LKRL-aib-SA-CONH2] (Ac-LLRK[Aib]LKRL[Aib]SA-NH2) | 8 (≈ 5.68 µM) | 32 (≈ 22.7 µM) | 8 (≈ 5.68 µM) | 
10 | CC(=O)N[C@H](CC(C)C)C(=O)N[C@H](CC(C)C)C(=O)N[C@H](CCCNC(=N)N)C(=O)N[C@H](CCCCN)C(=O)NC(C)(C)C(=O)N[C@H](CC(C)C)C(=O)N[C@H](CCCCN)C(=O)N[C@H](CCCCN)C(=O)N[C@H](CC(C)C)C(=O)NC(C)(C)C(=O)N[C@H](CO)C(=O)N[C@H](C)C(N)=O [SEQ ID NO: 5, Acetyl-llrk-Aib-lkkl-Aib-sa-amide] (Ac-[dL][dL][dR][dK][Aib][dL][dK][dK][dL][Aib][dS][dA]-NH2) | 16 (≈ 11.6 µM) | 16 (≈ 11.6 µM) |  | 
11 | CC(=O)N[C@H](C)C(=O)N[C@H](CO)C(=O)NC(C)(C)C(=O)N[C@H](CC(C)C)C(=O)N[C@H](CCCNC(=N)N)C(=O)N[C@H](CCCCN)C(=O)N[C@H](CC(C)C)C(=O)NC(C)(C)C(=O)N[C@H](CCCCN)C(=O)N[C@H](CCCNC(=N)N)C(=O)N[C@H](CC(C)C)C(=O)N[C@H](CC(C)C)C(N)=O [SEQ ID NO: 6, Acetyl-as-aib-lrkl-aib-krll-amide] (Ac-[dA][dS][Aib][dL][dR][dK][dL][Aib][dK][dR][dL][dL]-NH2) | 8 (≈ 5.68 µM) | 8 (≈ 5.68 µM) | 8 (≈ 5.68 µM) | 
12 | CC(=O)N[C@@H](CC(C)C)C(=O)N[C@@H](CC(C)C)C(=O)N[C@@H](CCCNC(=N)N)C(=O)N[C@@H](CCCCN)C(=O)NC(C)(C)C(=O)N[C@@H](CC(C)C)C(=O)N[C@@H](CCCNC(=N)N)C(=O)N[C@@H](CCCCN)C(=O)N[C@@H](CC(C)C)C(=O)NC(C)(C)C(=O)N[C@@H](CO)C(=O)N[C@@H](C)C(=O)N[C@@H](CO)C(=O)NC(C)(C)C(=O)N[C@@H](CC(C)C)C(=O)N[C@@H](CCCNC(=N)N)C(=O)N[C@@H](CCCCN)C(=O)N[C@@H](CC(C)C)C(=O)NC(C)(C)C(=O)N[C@@H](CCCCN)C(=O)N[C@@H](CCCNC(=N)N)C(=O)N[C@@H](CC(C)C)C(=O)N[C@@H](CC(C)C)C(N)=O [SEQ ID NO: 7, Acetyl-LLRK-aib-LRKL-aib-SAS-aib-LRKL-aib-KRLL-CONH2] (Ac-LLRK[Aib]LRKL[Aib]SAS[Aib]LRKL[Aib]KRLL-NH2) | 8 (≈ 2.98 µM) | 16 (≈ 5.95 µM) | 8 (≈ 2.98 µM) | 
